Test results as given in ChEMBL document CHEMBL1828607, “N-Heteroaryl glycinamides and glycinamines as potent NPY5 antagonists” (Bioorg Med Chem Lett, 2011).
Converted amounts (≈) assume the structure as drawn.

How the values were obtained:
physchem [1] = settings: octanol/water
Description: Lipophilicity, log D of the compound

in vivo [2] = settings: Sprague-Dawley, rat, plasma, po, 10 mg/kg
Description: Drug level in femoral artery cannulated Sprague-Dawley rat plasma at 10 mg/kg, po after 1 hr by LC/MS/MS method

physchem [3] = settings: buffer, pH 7.4
Description: Solubility of the compound at pH 7.4

in vivo [4] = settings: Sprague-Dawley, rat, brain/plasma, po, 10 mg/kg
Description: Ratio of drug level in brain to plasma in femoral artery cannulated Sprague-Dawley rat at 10 mg/kg, po after 1 hr by LC/MS/MS method

in vivo [5] = settings: Sprague-Dawley, rat, brain, po, 10 mg/kg
Description: Drug level in femoral artery cannulated Sprague-Dawley rat brain at 10 mg/kg, po after 1 hr by LC/MS/MS method

concentration at 1 h (in vivo [2]) [nM]	Kp at 1 h (in vivo [4])	concentration at 1 h (in vivo [5]) [nM]	SMILES	logD (physchem [1])	solubility (physchem [3]) [µg/mL]
481	0.07	33	CC(C)S(=O)(=O)NC[C@H]1CC[C@H](NC(=O)CN2C(=O)COc3cc(Cl)ccc32)CC1	–	–
430	0.1	43	CC(C)S(=O)(=O)NC[C@H]1CC[C@H](NC(=O)CN2CCOc3cc(Cl)ccc32)CC1	–	–
879	0.02	16	CC(C)S(=O)(=O)NC[C@H]1CC[C@H](NC(=O)CN2C(=O)CCc3cc(Cl)ccc32)CC1	–	–

SMILES	concentration at 1 h (in vivo [2]) [nM]	Kp at 1 h (in vivo [4])	concentration at 1 h (in vivo [5]) [nM]	logD (physchem [1])	solubility (physchem [3]) [µg/mL]
CN(C)S(=O)(=O)NC[C@H]1CC[C@H](NC(=O)CN2C(=O)CC(C)(C)Sc3ccccc32)CC1	1.5	–	–	2.4	440 (≈ 912 µM)
